Results on 2 substances are retold here after ChEMBL document CHEMBL6074662, “Antibacterial, Antibiofilm, and Anti-inflammatory Effects of a Novel Thrombin-Derived Peptide in Sepsis Models: Insights into Underlying Mechanisms” (J Med Chem, 2024).

Activity calls are given as the source filed them. The rule behind the calls is not given here.

Series [1] is described as follows: Effect on secondary structure of drug in SDS assessed as formation of left-handed alpha-helical conformation at 150 uM by CD analysis. Type of series: physicochemical.
For the next series, the system named is Lipopolysaccharide (LPS). Nature of the series: Displacement of BODIPY-TR-cadaverine from cell-free LPS (unknown origin) at 16 uM incubated for 30 mins by fluorescence based assay relative to control.
Series [2] addresses T1, Toll-like receptor 4 (Mus musculus) (UniProt Q9QUK6).
T1 sequence (whole entry): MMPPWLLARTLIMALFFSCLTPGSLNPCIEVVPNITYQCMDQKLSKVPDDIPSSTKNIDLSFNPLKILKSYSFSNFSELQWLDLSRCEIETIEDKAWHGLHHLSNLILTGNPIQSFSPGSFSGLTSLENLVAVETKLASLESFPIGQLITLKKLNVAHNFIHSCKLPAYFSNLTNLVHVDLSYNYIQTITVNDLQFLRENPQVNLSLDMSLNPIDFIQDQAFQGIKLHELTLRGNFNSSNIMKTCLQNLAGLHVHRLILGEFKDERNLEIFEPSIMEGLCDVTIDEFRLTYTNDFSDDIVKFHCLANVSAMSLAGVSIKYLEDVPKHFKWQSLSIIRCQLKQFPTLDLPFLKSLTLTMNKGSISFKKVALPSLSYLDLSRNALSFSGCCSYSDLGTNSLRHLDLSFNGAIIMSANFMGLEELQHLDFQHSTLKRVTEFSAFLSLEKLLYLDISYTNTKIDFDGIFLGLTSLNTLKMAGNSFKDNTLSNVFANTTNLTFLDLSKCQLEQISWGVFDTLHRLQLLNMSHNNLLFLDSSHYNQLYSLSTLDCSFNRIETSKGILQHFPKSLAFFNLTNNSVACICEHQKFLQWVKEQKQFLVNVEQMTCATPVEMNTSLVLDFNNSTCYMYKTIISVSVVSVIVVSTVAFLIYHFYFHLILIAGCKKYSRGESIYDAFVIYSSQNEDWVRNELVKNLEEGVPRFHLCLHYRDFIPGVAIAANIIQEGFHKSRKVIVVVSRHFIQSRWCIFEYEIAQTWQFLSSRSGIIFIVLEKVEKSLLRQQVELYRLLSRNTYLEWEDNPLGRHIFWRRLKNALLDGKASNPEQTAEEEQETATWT
Nature of the series: Inhibition of LPS-induced TLR4 activation in mouse RAW264.7 cells assessed as decrease in ERK phosphorylation at 2 uM pretreated for 1 hr followed by LPS treatment for 30 mins by Western blot analysis relative to control. The conditions noted are these: time 90.0 min. The format is cell-based.

The target in series [3] is T1, Toll-like receptor 4 (Mus musculus). Nature of the series: Inhibition of LPS-induced TLR4 activation in mouse RAW264.7 cells assessed as decrease in p38 MAPK phosphorylation at 2 uM pretreated for 1 hr followed by LPS treatment for 30 mins by Western blot analysis relative to control. Type of series: cell-based. The conditions noted are these: time 90.0 min. On the technique in general: A western blot detects proteins with antibodies after separation by electrophoresis.

The test system of series [4] is Mus musculus. Nature of the series: Antiseptic activity in sepsis shock ICR mouse model infected with carbapenem-resistant Acinetobacter baumannii assessed as decrease in AST level in serum at 1 mg/kg, ip pretreated with compound for 1 hr followed by bacterial infection measured after 16 hrs relative to control. On the set-up: scale not given: the % may be the effect or the level left. Type of series: functional. The settings on record: time 17 hrs.

Series [5] deals with Mus musculus. Nature of the series: Antiseptic activity in sepsis shock ICR mouse model infected with carbapenem-resistant Acinetobacter baumannii assessed as decrease in ALT level in serum at 1 mg/kg, ip pretreated with compound for 1 hr followed by bacterial infection measured after 16 hrs relative to control. The format is functional. Also on record: scale not given: the % may be the effect or the level left. The settings on record: time 17 hrs.

Series [6] relates to Mus musculus. Nature of the series: Antiseptic activity in sepsis shock ICR mouse model infected with carbapenem-resistant Acinetobacter baumannii assessed as reduction in bacterial count in lungs at 1 mg/kg, ip pretreated with compound for 1 hr followed by bacterial infection measured after 16 hrs relative to control. The format is functional. Also on record: scale not given: the % may be the effect or the level left. The conditions noted are these: time 17 hrs.

The subject of series [7] is Mus musculus. The series is described as follows: Antiseptic activity in sepsis shock ICR mouse model infected with carbapenem-resistant Acinetobacter baumannii assessed as reduction in bacterial count in lungs at 1 mg/kg, ip pre-infected with bacteria followed by compound administration 3 hrs post-infection measured after 16 hrs relative to control. Type of series: functional. On the set-up: scale not given: the % may be the effect or the level left.

Series [8] concerns Mus musculus. The series is described as follows: Antiseptic activity in sepsis shock ICR mouse model infected with carbapenem-resistant Acinetobacter baumannii assessed as reduction in bacterial count in liver at 1 mg/kg, ip pretreated with compound for 3 hrs followed by bacterial infection measured after 16 hrs relative to control. The format is functional. Also on record: scale not given: the % may be the effect or the level left. The settings on record: time 19 hrs.

The subject of series [9] is Mus musculus. Nature of the series: Antiseptic activity in sepsis shock ICR mouse model infected with carbapenem-resistant Acinetobacter baumannii assessed as reduction in bacterial count in liver at 1 mg/kg, ip pre-infected with bacteria followed by compound administration 1 hr post-infection measured after 16 hrs relative to control. Type of series: functional. On the set-up: scale not given: the % may be the effect or the level left.

The subject of series [10] is Mus musculus. Nature of the series: Antiseptic activity in sepsis shock ICR mouse model infected with carbapenem-resistant Acinetobacter baumannii assessed as reduction in serum IL-6 level at 1 mg/kg, ip pretreated with compound for 1 hr followed by bacterial infection measured after 16 hrs relative to control. Type of series: functional. On the set-up: scale not given: the % may be the effect or the level left. The settings on record: time 17 hrs.

Series [11] concerns Escherichia coli. Nature of the series: Antibacterial activity against Escherichia coli KCTC 1682 assessed as zone of clearance incubated for 4 hrs in presence of pepsin by radical diffusion assay. The format is functional, organism-based.
In series [12] the test system is Escherichia coli. Nature of the series: Antibacterial activity against Escherichia coli KCTC 1682 assessed as zone of clearance incubated for 4 hrs in presence of trypsin by radical diffusion assay. The format is functional, organism-based.

Consider H-GVFRLKKWLKKVKKWGK-NH2, for which the Activity entry in series [1] was “Active”; with Lipopolysaccharide (LPS), 80%; in the series on Mus musculus [4], 31.8%; in the series with Mus musculus [5], 67.8%; in the series with Mus musculus [6] it was 99%; in the series with Mus musculus [7], 25%. Also, the Activity turned out to be 99.4% in the series on Mus musculus [8], 97.7% with Mus musculus [9] and 100% in the series with Mus musculus [10]. For the same substance, the values for the inhibition in series [2] and in series [3] were 27% and 63%, respectively.
As to H-GVFRLKKWIKKVIKKWGK-NH2, the result with Escherichia coli [11] and with Escherichia coli [12] was inactive.

Usually inhibition stands for the change of the read-out against control, counted positive when it falls.
